Test system: Aureobasidium pullulans (ATCC #9348)
Experiment: EUCAST 96-well plate fungal growth inhibition (MIC)
Format: cell-based
Parameters: key to growth of Aureobasidium pullulans in 96-well plates: (+) in each block indicates growth; (−) indicates no growth, i.e., the inhibitor was effective
Details: for MIC: Aureobasidium pullulans ATCC 9348, 3 days at 35° C.
Procedure: (A) 0.17 g of 60% DPAB aqueous solution (ProTek® PBT or Polymeric Betaine EP or Polymeric Betaine Technical Grade Active Ingredient Wood Preservative, Troy Chemical Corporation, Newark, N.J.) was diluted in 9.83 g ethanol by stirring to form a concentrate containing 1% DPAB.
(B) 0.25 g of 40% IPBC solvent solution (Polyphase® AF-1, Troy Chemical Corporation, Newark, N.J.) was diluted in 9.75 g ethanol by stirring to form a concentrate containing 1% IPBC.
(C) 21.04 g of 60% DPAB aqueous solution (ProTek® PBT or Polymeric Betaine EP or Polymeric Betaine Technical Grade Active Ingredient Wood Preservative, Troy Chemical Corporation, Newark, N.J.), 6.25 g of 40% IPBC solvent solution (Polyphase AF-1, Troy Chemical Corporation, Newark, N.J.) and 22.74 g of ethanol were mixed and stirred. The resulting concentrate contained 25% polymeric betaine and 5% IPBC. The weight ratio of polymeric betaine to IPBC was 5:1. 0.33 g of this IPBC/polymeric betaine concentrate was diluted in 9.67 g of ethanol to form a use-dilution containing about 0.83% DPAB and 0.17% IPBC.
Solutions prepared as described above were tested in 96-well plates for their ability to inhibit fungal growth. The solutions were tested according to the EUCAST methodology as described in Rodriguez-Tudela et al. 2006 “Antifungal susceptibility testing in Aspergillus spp. according to EUCAST methodology,” the contents of which are incorporated by reference herein. The solutions were checked for inhibition against fungal organisms Aspergillus niger (ATCC #6275), Aureobasidium pullulans (ATCC #9348), Penicillium funiculosum (ATCC #11797) and Trichoderma pseudokoningii (ATCC #26801). This method is described below:
(1) Prepared preservative test wells by adding 2 microliters of each 1% preservative solution formulation to 198 microliters of 2xRPMI-MOPS-2% Glucose in each column “1” in duplicate.
(2) Added 100 microliters of 2xRPMI-MOPS-2% Glucose to the remaining columns.
(3) Performed 2-fold dilutions down the columns to column “12”.
(4) Prepared suspension of microorganisms from a 3-5 day old PDA slants by flooding slant with 1 mL deionized water and 0.1% Tween-20.
(5) Suspension strength was determined via hemocytometer then adjusted to 1×10^6 spores/mL with sterile deionized water.
(6) Added 100 microliters of the microorganism suspension to all wells except for sterility (−) controls containing test media. The water used to prepare the fungal suspensions was added to sterility (−) control wells.
(7) The inoculated 96-well plates were incubated for 3 days at 35° C.
(8) After incubation, fungal growth was evaluated by visual growth in test wells. Minimum inhibitory concentration (MIC) is recorded in ppm and defined as the lowest concentration of fungicide that produces no visual changes in turbidity in the test wells. (+) in each block indicates growth and (−) indicates no growth, i.e., the inhibitor was effective.
(9) The experiment is only considered valid if growth is observed in the positive (+) control wells and no growth is observed in the negative control wells.
In order to show more directly the possible synergy in the invention, the results are presented by applying the Synergy Index (S.I.). Minimal inhibitory concentration of the composition of this invention (mixture of DPAB and IPBC) are analyzed using the following equation:
MCA=Concentration of compound A in parts per million, acting alone, which prevents fungal growth at the reference point
MCA′=Concentration of compound A in parts per million, in the mixture, which prevents fungal growth at the reference point
MCB=Concentration of compound B in parts per million, acting alone, which prevents fungal growth at the reference point
MCB′=Concentration of compound B in parts per million, in the mixture, which prevents fungal growth at the reference point
When SI is greater than 2, antagonism is indicated. […] When SI is between 0.5 and 2, the action of biocides is additive.

Row | Molecule | MIC [ppm] | growth of Aureobasidium pullulans in 96-well plates (well 1, 50.00 ppm active) | growth of Aureobasidium pullulans in 96-well plates (well 2, 25.00 ppm active) | growth of Aureobasidium pullulans in 96-well plates (well 3, 12.50 ppm active) | growth of Aureobasidium pullulans in 96-well plates (well 4, 6.25 ppm active) | growth of Aureobasidium pullulans in 96-well plates (well 5, 3.13 ppm active) | growth of Aureobasidium pullulans in 96-well plates (well 6, 1.56 ppm active) | growth of Aureobasidium pullulans in 96-well plates (well 7, 0.78 ppm active) | growth of Aureobasidium pullulans in 96-well plates (well 8, 0.39 ppm active) | growth of Aureobasidium pullulans in 96-well plates (well 9, 0.20 ppm active) | growth of Aureobasidium pullulans in 96-well plates (well 10, 0.10 ppm active) | growth of Aureobasidium pullulans in 96-well plates (well 11, 0.05 ppm active) | growth of Aureobasidium pullulans in 96-well plates (well 12, 0.02 ppm active)
1 | CCCCNC(=O)OCC#CI [IPBC, 3-iodo-2-propynyl butyl carbamate] | 25.00 | − | − | + | + | + | + | + | + | + | + | + | +
2 | didecyl bis(hydroxyethyl) ammonium borate [DPAB] | 12.5 | − | − | − | + | + | + | + | + | + | + | + | +

Source: patent US20220161456A1, “S[…] PRESERVATIVE COMPOSITION COMPRISING POLYMERIC BETAINE AND CARBAMATE” (Troy Corporation, priority 2019, published 2022)
